Strand notation (5' to 3'): a small letter for the sugar, then the base; units joined by * are phosphorothioate-linked, units joined directly phosphodiester-linked; [ ] holds rarer units or linkages, { } end groups; capitals alone tell only the bases. e = 2'-O-(2-methoxyethyl) (MOE); [5mC] = 5-methylcytosine; d = 2'-deoxy (DNA)
Key:
SGLT2 mRNA = SGLT2 mRNA levels in kidney of Balb/c mice, twenty 1-10-1 MOE gapmers at 350 nmol/kg, PPS 534 and PPS 553 (Example 18, Table 74); format: in vivo, mouse; conditions: 350 nmol/kg i.p. twice per week for two weeks
Description: Twenty 1-10-1 MOE gapmers that are complementary to human/monkey/mouse/rat SGLT2 were designed, synthesized and tested in vivo for suppression of SGLT2 mRNA levels in kidney. Data are averages from two experiments in which male 6-week old Balb/c mice were administered intraperitoneal injections of 350 nmol/kg of oligonucleotide, twice per week, over a period of two weeks (a total of four injections). Mice were sacrificed 48 hours following the last administration and evaluated for SGLT2 mRNA levels in kidney. SGLT2 mRNA levels were determined by quantitative real-time PCR analysis according to standard procedures, using two different PCR primer probe sets, primer probe set (PPS) 534 and PPS 553. SGLT2 mRNA levels were normalized to cyclophilin mRNA levels, which were also measured by quantitative real-time PCR.

PCSK9 mRNA [1] = test: Dose-dependent inhibition of PCSK9 in Hep3B cells with EC50 (Example 19, Table 76); format: cell-based, human
Description: Short antisense compounds targeted to a PCSK9 nucleic acid were tested in a dose response experiment Hep3B cells. After the treatment period, RNA was isolated from the cells and PCSK9 mRNA levels were measured by quantitative real-time PCR, as described herein. PCSK9 mRNA levels were normalized to cyclophilin mRNA levels, as measured by real-time PCR using a cyclophilin-specific primer probe set. Results are presented as percent inhibition of PCSK9, relative to untreated control cells. […] As illustrated in the following table, PCSK9 mRNA levels were reduced in a dose-dependent manner.

PCSK9 mRNA [2] = format: cell-based, human; conditions: Hep3B cells, 100 nM, relative to untreated control cells; for % Inhib (PCSK9 mRNA): 0 = no reduction observed
Description: When cells reached appropriate confluency, they were treated with oligonucleotide using LIPOFECTIN® as described. […] Cells were treated and data were obtained in duplicate or triplicate. […] Cells were harvested 16-24 hours after oligonucleotide treatment.
Short antisense compounds targeted to a PCSK9 nucleic acid were tested for their effects on PCSK9 mRNA in vitro. The Isis No, gapmer motif and SEQ ID NO of each short antisense compound are shown again in Table 75. Cultured Hep3B cells were treated with 100 nM of short antisense compound. 5-10-5 MOE gapmers targeted to a PCSK9 nucleic acid were used as positive controls. After the treatment period, RNA was isolated from the cells and PCSK9 mRNA levels were measured by quantitative real-time PCR, as described herein. PCSK9 mRNA levels were adjusted according to total RNA content as measured by RIBOGREEN®. Results are presented in Table 75 as percent inhibition of PCSK9 (% Inhib), relative to untreated control cells.

PTP1B mRNA [3] = test: Dose response for human PTP1B in HuVEC cells, Primer Probe Set 198 (Example 25, Table 86); format: cell-based
Description: (§1) Human vascular endothelial (HuVEC) cells were plated at a density of 5000 cells per well and treated as described herein with nM concentrations of short antisense compound as indicated in Table 86. After the treatment period, RNA was isolated from the cells and PTP1B mRNA levels were measured by quantitative real-time PCR, as described herein. PTP1B mRNA levels were adjusted according to total RNA content as measured by RIBOGREEN®. Two different human PTP1B primer probe sets were used to measure mRNA levels. Results with Primer Probe Set (PPS) 198 are shown in Table 86, and results with Primer Probe Set (PPS) 3000 are shown in Table 87. Results are presented as percent inhibition of PTP1B mRNA expression relative to untreated control cells.

PTP1B mRNA [4] = test: Dose response for human PTP1B in HuVEC cells, Primer Probe Set 3000 (Example 25, Table 87); format: cell-based
Description: as §1

Substance	SGLT2 mRNA in kidney, % change relative to saline (SGLT2 mRNA; primer probe set 534) [%]	SGLT2 mRNA in kidney, % change relative to saline (SGLT2 mRNA; primer probe set 553) [%]	% Inhibition of PCSK9 (PCSK9 mRNA [1]; 5 nM) [%]	% Inhibition of PCSK9 (PCSK9 mRNA [1]; 10 nM) [%]	% Inhibition of PCSK9 (PCSK9 mRNA [1]; 20 nM) [%]	% Inhibition of PCSK9 (PCSK9 mRNA [1]; 40 nM) [%]	% Inhibition of PCSK9 (PCSK9 mRNA [1]; 80 nM) [%]	% Inhibition of PCSK9 (PCSK9 mRNA [1]; 160 nM) [%]	% Inhibition Range (PCSK9 mRNA) (PCSK9 mRNA [2])	% Inhib (PCSK9 mRNA) (PCSK9 mRNA [2]) [%]	% Inhibition of PTP1B mRNA (PTP1B mRNA [3]; PPS 198, 1.11 nM) [%]	% Inhibition of PTP1B mRNA (PTP1B mRNA [3]; PPS 198, 3.33 nM) [%]	% Inhibition of PTP1B mRNA (PTP1B mRNA [3]; PPS 198, 10.0 nM) [%]	% Inhibition of PTP1B mRNA (PTP1B mRNA [3]; PPS 198, 30.0 nM) [%]	% Inhibition of PTP1B mRNA (PTP1B mRNA [4]; PPS 3000, 1.11 nM) [%]	% Inhibition of PTP1B mRNA (PTP1B mRNA [4]; PPS 3000, 3.33 nM) [%]	% Inhibition of PTP1B mRNA (PTP1B mRNA [4]; PPS 3000, 10.0 nM) [%]	% Inhibition of PTP1B mRNA (PTP1B mRNA [4]; PPS 3000, 30.0 nM) [%]
379685 (antisense eT*dG*dA*d[5mC]*d[5mC]*dA*dG*d[5mC]*dA*dG*dG*eA) [compound 379685]	−10.3	−20.5	–	–	–	–	–	–	–	–	–	–	–	–	–	–	–	–
379690 (antisense eA*d[5mC]*dA*dG*dG*dT*dA*dG*dA*dG*dG*e[5mC]) [compound 379690]	−18.9	−22.5	–	–	–	–	–	–	–	–	–	–	–	–	–	–	–	–
400352 (antisense e[5mC]*eA*d[5mC]*d[5mC]*d[5mC]*dT*d[5mC]*dA*d[5mC]*d[5mC]*d[5mC]*d[5mC]*e[5mC]*eA) [compound 400352]	–	–	7	16	40	44	63	64	20-30%	29	–	–	–	–	–	–	–	–
400307 (e[5mC]*eG*dG*d[5mC]*d[5mC]*dG*d[5mC]*dT*dG*dA*d[5mC]*d[5mC]*eA*e[5mC]; antisense) [compound 400307]	–	–	35	39	45	56	92	93	70-80%	76	–	–	–	–	–	–	–	–
398120 (antisense eG*eT*dT*d[5mC]*dA*dA*dG*d[5mC]*dG*dG*d[5mC]*d[5mC]*eT*eA) [compound 398120]	–	–	–	–	–	–	–	–	–	–	0	31	80	96	0	35	79	93
399173 (antisense eA*eT*dG*d[5mC]*dT*dA*dG*dT*dG*d[5mC]*dA*d[5mC]*eT*eA) [compound 399173]	–	–	–	–	–	–	–	–	–	–	0	24	63	89	0	11	59	92
400353 (antisense eA*e[5mC]*dA*d[5mC]*d[5mC]*d[5mC]*dT*d[5mC]*dA*d[5mC]*d[5mC]*d[5mC]*e[5mC]*e[5mC]) [compound 400353]	–	–	15	27	23	43	54	48	10-20%	19	–	–	–	–	–	–	–	–
399208 (antisense eA*eG*d[5mC]*dT*d[5mC]*dG*d[5mC]*dT*dA*d[5mC]*d[5mC]*dT*e[5mC]*eT) [compound 399208]	–	–	–	–	–	–	–	–	–	–	0	37	86	93	0	47	85	96
399102 (antisense eG*eA*dA*dG*dT*d[5mC]*dA*d[5mC]*dT*dG*dG*d[5mC]*eT*eT) [compound 399102]	–	–	–	–	–	–	–	–	–	–	0	15	62	88	0	9	60	87
400309 (e[5mC]*e[5mC]*d[5mC]*dG*dG*d[5mC]*d[5mC]*dG*d[5mC]*dT*dG*dA*e[5mC]*e[5mC]; antisense) [compound 400309]	–	–	49	23	38	12	72	78	40-50%	44	–	–	–	–	–	–	–	–
400331 (eG*e[5mC]*d[5mC]*dA*d[5mC]*dG*dT*dG*dG*dG*d[5mC]*dA*eG*e[5mC]; antisense) [compound 400331]	–	–	29	40	47	63	75	82	30-40%	35	–	–	–	–	–	–	–	–

Reference: patent publication US8188059B2, “Compounds and methods for modulating expression of GCGR” (Isis Pharmaceuticals, Inc., priority 2006, dated 2012)
